For test [1], the system named is CD8β. Kind of test: CD8-β-chain mRNA expression in brain by qRT-PCR. Format: in vivo, C57BL/6 mice. On the procedure:
Mice were sacrificed, when infected control mice presented signs of ECM, and perfused intracardially with PBS to remove circulating RBC and leukocytes from the organs. RNA was isolated from brains, livers and lungs using Trizol Reagent (Invitrogen, Life technologies), according to the manufacturer's recommendation. The synthesis of the first-strand cDNA from the RNA templates was carried out using the Transcriptor First Strand cDNA Synthesis Kit (Roche). RT-PCR reactions were performed in the presence of SYBER Green (SYBER Green PCR master mix, Applied Biosystems) on an ABI PRISM 7500Fast (Applied Biosystem). Oligonucleotides used for the specific amplification of genes include:
The relative changes in gene expression between experimental and control groups were calculated by the Pfaffl method using hprt as internal control gene. Statistical Analysis

A short description of test [2]: Brain histology (hematoxylin and eosin) in ECM. Format: in vivo, C57BL/6 mice. Particulars: P. berghei ANKA-infected mice. As for the experimental part: For evaluation of histological features, mice were deeply anesthetized until cessation of breathing when infected control mice presented signs of ECM or ALI. The livers, lungs, and brains were removed and fixed in 10% buffered formalin for 24-72 h. Four-micron sections were cut from paraffin-embedded tissues and stained with hematoxylin and eosin according to standard procedures. Histological analyses were performed on a Leica microscope DM 2500 (Leica Microsystems).

In test [3] the test system is Myoglobin (Mb) from equine skeletal muscle. The experiment in a line: Deoxy-myoglobin (Mb) carbonylation assay, CO release. Particulars: after 15 minutes of incubation with deoxy-Mb, PBS pH 7.4. Format: biochemical. On the procedure: The CO donation capacity of Compound 1 by a deoxy-myoglobin (Mb) carbonylation assay was then evaluated (see, e.g., Clark et al., Am J Pathol (1992) 140:325-336).
The Mb assay was performed as described in Clark et al., Circ. Res. (2003) 93:2-8. A stock solution of Myoglobin (Mb) from equine skeletal muscle was prepared by dissolving the protein in PBS7.4. From this solution aliquots were taken to a cuvette (final concentration between ca. 60 μM) and Na2S2O4 in PBS, pH 7.4 (10 mg/mL solution; 0.1% final concentration) was added to convert met-Mb into deoxy-Mb. The reactions were done by mixing in the same cuvette and by this order, the Mb stock solution, the Na2S2O4 solution, a calculated amount of a solution of Compound I and adding PBS to obtain the desired final volume. […] Two controls were done in duplicate, the negative control (0% CO-Mb), a deoxy-Mb solution and the positive control (100% CO-Mb), obtained by bubbling pure CO gas into the deoxy-Mb solution for 10-15 min. The experimental spectrum was fitted as a weighted sum of the deoxy-Mb and the CO-Mb spectra. […] The absorbance spectrum was converted into a percentage of CO-Mb and the amount of CO liberated was calculated as molar equivalents of CO based on the initial concentration of Compound I (see FIG. 10).

In test [4] the target is T1, Hen Egg White Lysozyme C (Gallus gallus, UniProt P00698).
T1 construct: one corresponding to the mass of native lysozyme (14305=calculated mass); from tissue; host or cells: hen egg white
Kind of test: Hen egg white lysozyme (HEWL) assay, reactivity with proteins by LC-MS. The settings on record: 10 equiv in H2O, room temperature, 10 minutes and 1 hour. The format is binding. The text has this:
The hen egg white lysozyme (HEWL) assay was used to assess the reactivity of Compound 1 in the presence of proteins (see, e.g., Santos-Silva, T. et al. J Am Chem Soc (2011) 133, 1192-1195). This paper describes the interactions of CORM-3 with plasma proteins. CORM-3 reacts rapidily with proteins, losing chloride ion, glycinate, and one CO ligand. […] It was observed that CORM-3 reacts faster and has a much weaker efficacy than Compound 1 in this ECM treatment.
Liquid chromatography-mass spectrometry (LC-MS) was performed on a Micromass Quattro API instrument (ESI-TOF-MS) coupled to a Waters Alliance 2795 HPLC using a MassPREP On-Line Desalting Cartridge. […]
Hen Egg White Lysozyme C (PDB code 3b61; UniProtKB/Swiss-Prot code P00698). […] Quantitative determination of lysozyme-ligand binding in the solution and gas phases by electrospray ionisation mass spectrometry follows Veros et al., Rapid Commun. […] A 50 μL aliquot was analyzed by LC-MS (calculated average isotopic mass of the egg white lysozyme=14305.1).
Santos-Silva and co-workers previously describe CORM-3's reactivity towards proteins and formation of a Ru(II) dicarbonyl-lysozyme complex (see, e.g., Santos-Silva et al., J. Am. Chem. Soc. (2011) 133:1192-1195). […] 50 μL aliquots were collected and analyzed by LC-MS over the reaction time (10 minutes and 1 hour). […]

T1 sequence (P00698 19-147): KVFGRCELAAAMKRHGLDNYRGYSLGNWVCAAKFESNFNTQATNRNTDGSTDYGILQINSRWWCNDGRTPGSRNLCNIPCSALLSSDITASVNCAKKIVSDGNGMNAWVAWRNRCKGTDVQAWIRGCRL

Consider `C[SH]([C@@H]1OC(CO)[C@H](O)[C@H](O)C1O)[Ru]([Cl])([Cl])([CH]=O)([CH]=O)[CH]=O` (stereo partly shown) [Compound 1, Tricarbonyldichloro(methylthiogalactopyranoside) Ru(II)], for which the “CD8-β-chain mRNA expression in the brain vs Compound 2-treated mice” value in test [1] was “significantly lower”. For the same compound, in test [2], the “neuropathologic features in brain sections” value is “less hemorrhages, and the vessels had lower accumulation of pRBC and leukocytes”. For the same compound, in test [3], the “CO transferred to Mb” value was “approximately 1 equivalent of CO”. Further, the “reactivity with HEWL (adduct formation)” value in test [4] was “forms protein-Ru^II(CO)2 adducts but reacts slower than CORM-3”.

(Values after patent US9611286B2, “Ruthenium carbon monoxide releasing molecules and uses thereof” (Alfama, Inc., priority 2011, dated 2017).)
